This is an account of results in DBAASP.

Structures are written as SMILES. Converted amounts (≈) assume the structure as drawn.

In assay [1] the test system is Escherichia coli ATCC 25922. As to the kind of experiment: ≥ marks a high value that may be exact or a test limit, other limits are often not marked, values filed in µg/mL are converted to µM.
Assay [2] relates to Staphylococcus aureus ATCC 25923. The description is as above.

A word on the MIC: it is the lowest concentration found to suppress growth. Higher therefore signals a need for much substance. Take `CC[C@H](C)[C@H](NC(=O)CN)C(=O)N[C@@H](CCCCN)C(=O)N[C@@H](CCCCN)C(=O)N[C@@H](Cc1ccccc1)C(=O)N[C@@H](CC(C)C)C(=O)N[C@@H](Cc1cnc[nH]1)C(=O)N[C@H](C(=O)N[C@H](C(=O)N[C@@H](Cc1c[nH]c2ccccc12)C(=O)N[C@@H](CCCCN)C(=O)N[C@@H](Cc1ccccc1)C(=O)N[C@H](C(=O)N[C@@H](CCCCN)C(=O)N[C@@H](C)C(=O)N[C@@H](Cc1ccccc1)C(=O)N[C@H](C(=O)NCC(=O)N[C@@H](CCC(=O)O)C(=O)N[C@H](C(=O)N[C@@H](CCSC)C(=O)N[C@@H](CC(N)=O)C(=O)N[C@@H](CO)C(=O)O)[C@@H](C)CC)C(C)C)[C@@H](C)CC)[C@@H](C)CC)[C@@H](C)CC` [GIKKFLHIIWKFIKAFVGEIMNS]: in assay [1], the MIC was found to be 16 µM (≈ 43.5 µg/mL).

In assay [1], `CC[C@H](C)[C@H](NC(=O)CN)C(=O)N[C@@H](CC(C)C)C(=O)N[C@@H](CO)C(=O)N[C@@H](CO)C(=O)N[C@@H](Cc1ccccc1)C(=O)N[C@@H](CCCCN)C(=O)NCC(=O)N[C@H](C(=O)N[C@@H](C)C(=O)N[C@@H](CCCCN)C(=O)NCC(=O)N[C@H](C(=O)N[C@@H](C)C(=O)N[C@@H](CCCCN)C(=O)N[C@@H](CC(=O)O)C(=O)N[C@@H](CC(C)C)C(=O)N[C@@H](C)C(=O)NCC(=O)N[C@@H](CCCCN)C(=O)N[C@@H](CC(C)C)C(=O)N[C@@H](CC(C)C)C(=O)N[C@@H](CCC(=O)O)C(=O)N[C@H](C(=O)N[C@@H](CC(C)C)C(=O)N[C@@H](CCCCN)C(N)=O)[C@@H](C)O)C(C)C)C(C)C` [GILSSFKGVAKGVAKDLAGKLLETLK] had an MIC of 6.3 µM (≈ 16.7 µg/mL).

Take `CC[C@H](C)[C@H](NC(=O)[C@H](C)NC(=O)[C@H](CCCCN)NC(=O)[C@H](CC(C)C)NC(=O)[C@H](CC(C)C)NC(=O)CN)C(=O)N[C@@H](CCCCN)C(=O)N[C@H](C(=O)N[C@@H](CC(C)C)C(=O)N[C@@H](CC(C)C)C(N)=O)[C@@H](C)O` [GLLKAIKTLL]: the figures for the MIC in assay [2] and in assay [1] were 9.35 µM (≈ 9.99 µg/mL) and 4.68 µM (≈ 5 µg/mL), respectively.

For `CC[C@H](C)[C@H](NC(=O)[C@H](Cc1ccccc1)NC(=O)[C@H](CCCCN)NC(=O)[C@H](CC(C)C)NC(=O)[C@H](CC(C)C)NC(=O)CN)C(=O)N[C@@H](CCCCN)C(=O)N[C@H](C(=O)N[C@@H](CC(C)C)C(=O)N[C@@H](CC(C)C)C(N)=O)[C@@H](C)O` [GLLKFIKTLL], the MIC in assay [2] and in assay [1] was 1.75 µM (≈ 2 µg/mL) each time.

Regarding `CC[C@H](C)[C@H](NC(=O)[C@H](CCCN=C(N)N)NC(=O)[C@H](CCCCN)NC(=O)[C@H](CC(C)C)NC(=O)[C@H](CC(C)C)NC(=O)CN)C(=O)N[C@@H](CCCCN)C(=O)N[C@@H](Cc1ccccc1)C(=O)N[C@@H](CC(C)C)C(=O)N[C@@H](CC(C)C)C(N)=O` [GLLKRIKFLL], the MIC in assay [2] and in assay [1] was 6.66 µM (≈ 7.99 µg/mL) in each case.

`CC[C@H](C)[C@H](NC(=O)[C@H](CC(=O)O)NC(=O)[C@@H](NC(=O)[C@@H](NC(=O)CN)C(C)C)C(C)C)C(=O)N[C@@H](CC(C)C)C(=O)N[C@@H](CCCCN)C(=O)NCC(=O)N[C@@H](C)C(=O)N[C@@H](C)C(=O)N[C@@H](CCCCN)C(=O)N[C@@H](CC(=O)O)C(=O)N[C@@H](CC(C)C)C(=O)N[C@@H](C)C(=O)NCC(=O)N[C@@H](Cc1cnc[nH]1)C(=O)N[C@@H](CC(C)C)C(=O)N[C@@H](C)C(=O)N[C@@H](CO)C(=O)N[C@@H](CCCCN)C(=O)N[C@H](C(=O)O)C(C)C` [GVVDILKGAAKDLAGHLASKV] showed an MIC in assay [1] of 60.6 µM (≈ 125 µg/mL).

`CC(C)C[C@H](NC(=O)[C@H](Cc1ccccc1)NC(=O)[C@H](C)NC(=O)[C@H](Cc1c[nH]c2ccccc12)NC(=O)[C@H](Cc1c[nH]c2ccccc12)NC(=O)[C@H](Cc1c[nH]c2ccccc12)NC(=O)[C@H](C)NC(=O)[C@H](Cc1ccccc1)NC(=O)[C@H](CCCCN)NC(=O)[C@H](CCCCN)NC(=O)[C@@H](N)C(C)C)C(=O)N[C@@H](CCCCN)C(=O)N[C@@H](CCCCN)C(N)=O` [VKKFAWWWAFLKK]: the MIC in assay [1] worked out at 2 µM (≈ 3.47 µg/mL).
